Experimental data reported in the NIST ThermoML archive (doi:10.1016/j.jct.2011.01.014).

Experiment: xn = mol fraction of the nth substance listed
Conditions: 101 kPa, Liquid; for mass density: Vibrating tube method; for speed of sound: sound velocity cell

CC(=O)[O-].[NH3+]CCO [2-hydroxyethylammonium acetate] + CO
Conditions | mass density, 315.65 K [kg/m3] | mass density, 318.15 K [kg/m3] | mass density, 320.65 K [kg/m3] | mass density, 323.15 K [kg/m3] | speed of sound, 315.65 K [m/s] | speed of sound, 318.15 K [m/s] | speed of sound, 320.65 K [m/s] | speed of sound, 323.15 K [m/s]
x1 = 0.0492 | – | 823.867 | 821.611 | 819.344 | 1130.1 | 1122.4 | 1114.8 | 1107
x1 = 0.0951 | – | 866.652 | 864.531 | 862.394 | 1194.7 | 1187.2 | 1179.8 | 1172.3
x1 = 0.1987 | – | 935.943 | 934.029 | 932.105 | 1313.1 | 1306 | 1299.1 | 1292.1
x1 = 0.29 | – | 981.405 | 979.623 | 977.831 | 1402.7 | 1396.1 | 1389.4 | 1382.7
x1 = 0.3786 | – | 1014.8 | 1013.12 | 1011.42 | 1475 | 1468.6 | 1462.3 | 1455.9
x1 = 0.4825 | – | 1047.21 | 1045.59 | 1043.94 | 1551.4 | 1545.3 | 1539.3 | 1533.2
x1 = 0.6007 | 1077.07 | 1075.56 | 1074.05 | 1072.54 | 1621.4 | 1615.5 | 1609.6 | 1603.7
x1 = 0.6711 | 1091.61 | 1090.14 | 1088.66 | 1087.18 | 1658.5 | 1652.7 | 1646.9 | 1641.1
x1 = 0.7797 | 1110.6 | 1109.14 | 1107.66 | 1106.19 | 1678 | 1672.5 | 1667 | 1661.7
x1 = 0.8297 | 1118.54 | 1117.15 | 1115.77 | 1114.37 | 1731.2 | 1725.7 | 1720.2 | 1714.7
x1 = 0.9328 | 1132.26 | 1130.88 | 1129.49 | 1128.1 | 1728.4 | 1723 | 1717.6 | 1712.3
x1 = 1 | 1139.18 | 1137.82 | 1136.45 | 1135.08 | 1751.9 | 1746.5 | 1741.3 | 1736
